Like-named read-outs stand apart in the source and are kept apart here.
Experiments:
MDA-MB-435 = assay: COMPARE screening (NCI), GI50 in MDA-MB-435
Text: (§1) This in vitro prescreening system is based on the measurement of anticancer cytotoxicity against human cancer cell line panels consisting of approximately 60 cell lines of major human cancers (including leukemia, and slower growing tumor cells such as lung, colon, breast, skin, kidney, etc.) and is referred hereinafter as “COMPARE” screening.
(§2) COMPARE screening. The compounds described herein were examined for antiproliferative activity against the human cancer cell lines in the National Cancer Institute screen (COMPARE screening), in which the activity of each compound was evaluated with approximately 55 different cancer cell lines of diverse tumor origins. […] Therefore, the MGM value represents an overall assessment of toxicity of the compound across numerous cell lines.

[1] = tested on: all human cancer cell lines successfully tested (approximately 55); assay: COMPARE screening, mean graph midpoint (MGM); format: cell-based; details: average GI50 over all cell lines tested, values outside 10^-8 to 10^-4 molar taken as the limits, read-out: MGM (mean graph midpoint for growth inhibition); for MGM (mean GI50 across cell lines): Homo sapiens
Text: as §1, §2

UACC-62 = assay: COMPARE screening (NCI), GI50 in UACC-62
Text: as §1, §2

OVCAR-3 = assay: COMPARE screening (NCI), GI50 in OVCAR-3
Text: as §1, §2

topoisomerase I = target: T1, topoisomerase I (Homo sapiens, UniProt P11387); assay: Topoisomerase I-mediated DNA cleavage, 3'-end-labeled 161 bp pBluescript SK(-) fragment; format: biochemical; details: for Top 1 Cleavage: tested at concentrations ranging up to 10 μM, semi-quantitative relative to compound A; for top1-mediated DNA cleavage band at site 37 / top1-mediated DNA cleavage band at site 44: FIG. 1; for top1-mediated DNA cleavage band at site 37: cleavage site 37; for top1-mediated DNA cleavage band at site 44: cleavage site 44
T1 sequence (P11387 1-765): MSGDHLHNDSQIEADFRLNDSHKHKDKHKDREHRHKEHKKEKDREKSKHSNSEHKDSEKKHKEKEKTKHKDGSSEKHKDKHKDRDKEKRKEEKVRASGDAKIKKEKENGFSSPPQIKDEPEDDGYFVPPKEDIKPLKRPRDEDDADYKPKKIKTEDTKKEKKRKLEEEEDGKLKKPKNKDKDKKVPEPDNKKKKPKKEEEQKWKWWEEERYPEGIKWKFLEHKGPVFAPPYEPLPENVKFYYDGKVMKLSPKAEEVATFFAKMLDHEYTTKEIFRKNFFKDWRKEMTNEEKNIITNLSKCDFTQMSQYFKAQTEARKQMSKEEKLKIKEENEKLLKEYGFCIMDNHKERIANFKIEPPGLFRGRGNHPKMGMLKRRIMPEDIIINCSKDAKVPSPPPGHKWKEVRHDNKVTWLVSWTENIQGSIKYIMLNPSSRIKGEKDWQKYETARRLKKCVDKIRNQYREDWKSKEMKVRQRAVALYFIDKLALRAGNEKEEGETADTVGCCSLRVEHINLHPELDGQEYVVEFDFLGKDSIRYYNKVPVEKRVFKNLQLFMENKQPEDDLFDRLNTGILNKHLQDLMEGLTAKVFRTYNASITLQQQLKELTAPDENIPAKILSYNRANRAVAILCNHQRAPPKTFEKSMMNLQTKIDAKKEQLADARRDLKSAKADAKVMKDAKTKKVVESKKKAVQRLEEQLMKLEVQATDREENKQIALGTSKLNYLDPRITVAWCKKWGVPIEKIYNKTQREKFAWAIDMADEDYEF
Method: The assays were carried out at room temperature for 30 min and stopped by adding 0.5% SDS. […] Topoisomerase I was present in all reaction mixtures except for the one corresponding to the first lane.
Induction of DNA cleavage.
Labeling reactions were followed by phenol-chloroform extraction and ethanol precipitation. […] Reactions were terminated by adding 0.5% SDS.
DNA Cleavage Semiquantitative Analysis. […] The rubberband baseline correction was applied with band detection sensitivity set at 90.

HCT-116 = assay: COMPARE screening (NCI), GI50 in HCT-116
Text: as §1, §2

HOP-62 = assay: COMPARE screening (NCI), GI50 in HOP-62
Text: as §1, §2

DU-145 = assay: COMPARE screening (NCI), GI50 in DU-145
Text: as §1, §2

SF-539 = assay: COMPARE screening (NCI), GI50 in SF-539; details: Homo sapiens, read-out: Cytotoxicity GI50, CNS SF-539
Text: as §1, §2

SN12C = assay: COMPARE screening (NCI), GI50 in SN12C
Text: as §1, §2

[2] = Homo sapiens, UACC-62, read-out: Cytotoxicity GI50, melanoma UACC-62, melanoma, UACC-62, concentration corresponding to 50% growth inhibition
[3] = Homo sapiens, OVCAR-3, read-out: Cytotoxicity GI50, ovarian OVCAR-3, ovarian, OVCAR-3, concentration corresponding to 50% growth inhibition
[4] = Homo sapiens, HCT-116, read-out: Cytotoxicity GI50, colon HCT-116, colon, HCT-116, concentration corresponding to 50% growth inhibition
[5] = Homo sapiens, HOP-62, read-out: Cytotoxicity GI50, lung HOP-62, lung, HOP-62, concentration corresponding to 50% growth inhibition
[6] = Homo sapiens, MDA-MB-435, read-out: Cytotoxicity GI50, breast MDA-MB-435, breast, MDA-MB-435, concentration corresponding to 50% growth inhibition
[7] = Homo sapiens, DU-145, read-out: Cytotoxicity GI50, prostate DU-145, prostate, DU-145, concentration corresponding to 50% growth inhibition
[8] = Homo sapiens, SN12C, read-out: Cytotoxicity GI50, renal SN12C, renal, SN12C, concentration corresponding to 50% growth inhibition

| Structure (SMILES) | MGM (mean GI50 across cell lines) [1] [µM] | top1-mediated DNA cleavage band at site 37 (topoisomerase I) | top1-mediated DNA cleavage band at site 44 (topoisomerase I) | GI50 (UACC-62; [2]) [µM] | GI50 (OVCAR-3; [3]) [µM] | GI50 (HCT-116; [4]) [µM] | GI50 (HOP-62; [5]) [µM] | GI50 (MDA-MB-435; [6]) [µM] | GI50 (DU-145; [7]) [µM] | GI50 (SF-539) [µM] | GI50 (SN12C; [8]) [µM] | Top 1 Cleavage (topoisomerase I; Table 1) | also measured |
| --- | --- | --- | --- | --- | --- | --- | --- | --- | --- | --- | --- | --- | --- |
| COc1cc2c3c(n(C)c(=O)c2cc1OC)-c1cc2c(cc1C3=O)OCO2 [A, reference compound] | – | – | – | – | – | – | – | – | – | – | – | – | GI50 (MDA-MB-435): 96 µM; IC50 [1]: 20 µM |
| COc1cc2c[n+](CCCN)c3c(c2cc1OC)C(=O)c1cc2c(cc1-3)OCO2 [Compound 7ab, 6-(3-Amino-1-propyl)-2,3-dimethoxy-8,9-(methylenedioxy)-1′-oxo-indeno[1,2-c]isoquinolinium Chloride] | – | – | – | – | – | – | – | – | – | – | – | – | IC50 [1]: 0.167 µM |
| CC[C@@]1(O)C(=O)OCc2c1cc1n(c2=O)Cc2cc3ccccc3nc2-1 [B, camptothecin, reference compound] | – | – | – | 0.01 | – | 0.03 | 0.01 | 0.04 | 0.01 | 0.01 | 0.02 | – | – |
| COc1cc2c(c(OC)c1OC)-c1ncc3cc(OC)c(OC)c(OC)c3c1C2.Cl [Compound 9ec, 1,2,3,7,8,9-Hexamethoxy-11H-indeno[1,2-c]isoquinoline Hydrochloride] | – | – | – | – | – | – | – | – | – | – | – | – | GI50 (UACC-62; human): 21.1 µM; GI50 (OVCAR-3; human): 21.5 µM; GI50 (MDA-MB-435; human): 23 µM; Top 1 Cleavage (topoisomerase I; Table 2, Hydrochloride): ++ (++, similar activity as compound A); IC50 ([1]; Hydrochloride): 26.3 µM; GI50 (DU-145; human): 29.6 µM; GI50 (HCT-116; human): 27.8 µM; GI50 (HOP-62; human): 28.5 µM; GI50 (SN12C; human): 20.3 µM |
| COc1cc2c3c(n(CCCNCCO)c(=O)c2cc1OC)-c1cc2c(cc1C3=O)OCO2 [C, reference compound] | – | not seen | observed | – | – | – | – | – | – | – | – | – | – |

Continued, in another order:

| MGM (mean GI50 across cell lines) [1] [µM] | top1-mediated DNA cleavage band at site 37 (topoisomerase I) | top1-mediated DNA cleavage band at site 44 (topoisomerase I) | Structure (SMILES) | GI50 (UACC-62; [2]) [µM] | GI50 (OVCAR-3; [3]) [µM] | GI50 (HCT-116; [4]) [µM] | GI50 (HOP-62; [5]) [µM] | GI50 (MDA-MB-435; [6]) [µM] | GI50 (DU-145; [7]) [µM] | GI50 (SF-539) [µM] | GI50 (SN12C; [8]) [µM] | Top 1 Cleavage (topoisomerase I; Table 1) | also measured |
| --- | --- | --- | --- | --- | --- | --- | --- | --- | --- | --- | --- | --- | --- |
| 13.2 | – | – | COc1ccc2c(c1OC)-c1ncc3cc(OC)c(OC)c(OC)c3c1C2.Cl [Compound 9ea, 1,2,3,7,8-Pentamethoxy-11H-indeno[1,2-c]isoquinoline Hydrochloride] | 3.84 | 0.529 | 8.81 | 16 | – | – | – | – | – | Top 1 Cleavage (topoisomerase I; Table 2): ++ (++, similar activity as compound A) |
| 20.9 | – | – | COc1cc2c(c(OC)c1OC)-c1ncc3cc4c(cc3c1C2)OCO4.Cl [Compound 9bc, 7,8,9-Trimethoxy-2,3-methylenedioxy-11H-indeno[1,2-c]isoquinoline Hydrochloride] | 19.3 | 15.5 | 18.8 | 21.7 | 13.2 | 23.2 | – | 13.4 | 0 (0, no activity) | – |
| 33.9 | not seen | observed | COc1cc2c(cc1OC)-c1ncc3cc4c(cc3c1C2)OCO4.Cl [Compound 9ba, 8,9-Dimethoxy-2,3-methylenedioxy-11H-indeno [1,2-c]isoquinoline hydrochloride] | > 100 | 61.2 | 11.1 | – | 63.4 | 25.3 | 23.4 | > 100 | +++ (+++ and ++++, greater activity than compound A) | – |
| 26.3 | – | – | COc1cc2cnc3c(c2c(OC)c1OC)Cc1ccc2c(c1-3)OCO2.Cl [Compound 9eb, 1,2,3-Trimethoxy-7,8-methylenedioxy-11H-indeno[1,2-c]isoquinoline Hydrochloride] | 22.4 | – | 22.1 | – | > 100 | 26.9 | – | – | – | Top 1 Cleavage (topoisomerase I; Table 2): ++ (++, similar activity as compound A) |
| 44.7 | not seen | observed | COc1cc2c(cc1OC)-c1ncc3cc(OC)c(OC)cc3c1C2.Cl [Compound 9aa, 2,3,8,9-Tetramethoxy-11H-indeno[1,2-c]isoquinoline Hydrochloride] | > 50 | > 50 | > 50 | – | > 50 | > 50 | > 50 | > 50 | ++ (++, similar activity as compound A) | – |
| 24.5 | – | – | COc1ccc(OC)c2c3c(ncc12)-c1cc2c(cc1C3)OCO2.Cl [Compound 9db, 1,4-Dimethoxy-8,9-methylenedioxy-11H-indeno[1,2-c]isoquinoline Hydrochloride] | > 100 | 26.9 | 0.249 | < 0.01 | > 100 | 48.4 | – | > 100 | – | Top 1 Cleavage (topoisomerase I; Table 2): ++ (++, similar activity as compound A) |
| 24 | – | – | COc1cc2c(c(OC)c1OC)-c1ncc3cc(OC)c(OC)c(OC)c3c1C2.Cl [Compound 9cc, 1,2,3,7,8,9-Hexamethoxy-11H-indeno[1,2-c]isoquinoline Hydrochloride] | 17.4 | 19.1 | 33.5 | 35.4 | 20.8 | 26.6 | – | 17.6 | – | Top 1 Cleavage (topoisomerase I; Table 2, Hydrochloride): 0 (0, no activity) |
| 0.0505 | not seen | observed | COC1=C(OC)Cc2c3c(ncc2=C1)=c1cc2c(cc1=C3)OCO2.Cl [Compound 9ab, 2,3-Dimethoxy-8,9-methylenedioxy-1H-indeno[1,2-c]isoquinoline Hydrochloride] | < 0.01 | – | > 100 | 0.0721 | < 0.01 | 0.0281 | < 0.01 | > 100 | +++ (+++ and ++++, greater activity than compound A) | – |

Reference: US7781445B2, “Synthesis of indenoisoquinoliniums and methods of use” (Purdue Research Foundation, priority 2005, dated 2010)
